Residues, ends and D or L forms follow the SMILES beside them. *: point of attachment. Cbz = O=C(OCc1ccccc1)*; OtBu = CC(C)(C)O*
Tested on: primary human MSC cells
Assay: BMP regulation: gene expression array (SABiosciences PAHS-026) in primary human MSC cells
Format: cell-based
Conditions: hMSC, 8 hours
Procedure: SABisosciences custom array plates (Cat#PAHS-026) were used to measure BMP expression. These array plates are validated for efficiency when used at recommended conditions and reagents. On day 1, primary human MSC cells were plated at 200,000 cell/well using 6-well plates with 10% FBS, Penicillin and Streptomycin 10 mL per Liter, in recommended media. Only early passages of cells were used.
On day 2, cells were treated with compounds dissolved in DMSO diluted 1:1000 or more to avoid solvent effects. A non-treated negative control group was evaluated (FIG. 1, “Control Group”) along with a positive control group containing PS1 at 0.1 μM (FIG. 1, “Group 1”). Final testing concentration for CSA-90 was 5.0 μM (FIG. 1, “Group 2”), 2.5 μM (FIG. 1, “Group 3”), and 1.2 μM (FIG. 1, “Group 4”). Treatment lasted 8 hours, followed by RNA isolation using a QIAGEN Miniprep Kit. RNA was measured at 260/280 nm using NanoDrop2000 and normalized to 250 ng. cDNA preparation was done using QIAGEN First Strand kit.

[1] = PS1 0.1 μM, v. untreated control

With `CC[C@H](C)[C@H](NC(=O)OCc1ccccc1)C(=O)N[C@@H](CCC(=O)OC(C)(C)C)C(=O)N[C@@H](C)C(=O)N[C@H](C=O)CC(C)C` [PS1, reference compound] (Cbz-IE(OtBu)AL-aldehyde) as the compound, how does the “up-regulation of BMP-2 mRNA compared to the control” value (0.1 μM) read?
The value was 3 fold.

And the “Fold Up-Regulation ACTB (Actin, beta)” value [1]?
Its value is −1.4183 fold.

And the “Fold Up-Regulation AHSG (Alpha-2-HS-glycoprotein)” value [1]?
The value was −1.3295 fold.

And the “Fold Up-Regulation ALPL (Alkaline phosphatase, liver/bone/kidney)” value [1]?
Its value is −1.4723 fold.

And the “Fold Up-Regulation AMBN (Ameloblastin)” value [1]?
The value was −1.9272 fold.

What about the “Fold Up-Regulation AMELY (Amelogenin, Y-linked)” value [1] of the same compound?
Its value is −1.8864 fold.

And the “Fold Up-Regulation ANXA5 (Annexin A5)” value [1]?
Its value is 1.1236 fold.

What about the “Fold Up-Regulation BGLAP (Bone gamma-carboxyglutamate (gla) protein)” value [1] of the same compound?
The value was −1.3879 fold.

And the “Fold Up-Regulation BGN (Biglycan)” value [1]?
Its value is −1.1323 fold.

And the “Fold Up-Regulation BMP-1 (Bone morphogenetic protein 1)” value [1]?
The value was −1.1214 fold.

What about the “Fold Up-Regulation BMP-2 (Bone morphogenetic protein 2)” value [1] of the same compound?
Its value is 3.0816 fold.

What about the “Fold Up-Regulation BMP-3 (Bone morphogenetic protein 3)” value [1] of the same compound?
Its value is −1.1038 fold.

What about the “Fold Up-Regulation BMP-4 (Bone morphogenetic protein 4)” value [1] of the same compound?
Its value is −2.2148 fold.

What about the “Fold Up-Regulation BMP-5 (Bone morphogenetic protein 5)” value [1] of the same compound?
The value was 1.124 fold.

And the “Fold Up-Regulation BMP-6 (Bone morphogenetic protein 6)” value [1]?
Its value is 2.642 fold.

What about the “Fold Up-Regulation CALCR (CALCITONIN RECEPTOR)” value [1] of the same compound?
The value was 1.124 fold.

What about the “Fold Up-Regulation CD36 (CD36 molecule, thrombospondin receptor)” value [1] of the same compound?
Its value is −1.0202 fold.

What about the “Fold Up-Regulation CDH11 (Cadherin 11, type 2, OB-cadherin)” value [1] of the same compound?
Its value is −2.2309 fold.

What about the “Fold Up-Regulation COL1A1 (Collagen, type I, alpha 1)” value [1] of the same compound?
The value was −1.1935 fold.

And the “Fold Up-Regulation COL1A2 (Collagen, type I, alpha 2)” value [1]?
Its value is −1.0689 fold.

What about the “Fold Up-Regulation COL2A1 (Collagen, type II, alpha 1)” value [1] of the same compound?
The value was −1.4242 fold.

What about the “Fold Up-Regulation COL3A1 (Collagen, type III, alpha 1)” value [1] of the same compound?
Its value is −1.0806 fold.

What about the “Fold Up-Regulation COL4A3 (Collagen, type IV, alpha 3)” value [1] of the same compound?
Its value is −1.0619 fold.

And the “Fold Up-Regulation COL5A1 (Collagen, type V, alpha 1)” value [1]?
The value was 1.0927 fold.

And the “Fold Up-Regulation COL10A1 (Collagen, type X, alpha 1)” value [1]?
The value was 1.5421 fold.

What about the “Fold Up-Regulation COL11A1 (Collagen, type XI, alpha 1)” value [1] of the same compound?
Its value is −1.4875 fold.

And the “Fold Up-Regulation COL12A1 (Collagen, type XII, alpha 1)” value [1]?
The value was 1.0767 fold.

What about the “Fold Up-Regulation COL14A1 (Collagen, type XIV, alpha 1)” value [1] of the same compound?
The value was −1.5279 fold.

And the “Fold Up-Regulation COL15A1 (Collagen, type XV, alpha 1)” value [1]?
Its value is 1.2144 fold.

And the “Fold Up-Regulation COMP (Cartilage oligomeric matrix protein)” value [1]?
Its value is 1.2648 fold.

And the “Fold Up-Regulation CSF2 (Colony stimulating factor 2)” value [1]?
Its value is 6.205 fold.

What about the “Fold Up-Regulation CSF3 (Colony stimulating factor 3)” value [1] of the same compound?
Its value is −2.4364 fold.

What about the “Fold Up-Regulation CTSK (Cathepsin K)” value [1] of the same compound?
Its value is −1.2679 fold.

And the “Fold Up-Regulation DMP1 (Dentin matrix acidic phosphoprotein 1)” value [1]?
The value was 1.124 fold.

What about the “Fold Up-Regulation DSPP (Dentin sialophosphoprotein)” value [1] of the same compound?
Its value is 1.124 fold.

What about the “Fold Up-Regulation EGF (Epidermal growth factor)” value [1] of the same compound?
Its value is −1.2529 fold.

What about the “Fold Up-Regulation EGFR (Epidermal growth factor receptor)” value [1] of the same compound?
The value was −1.8532 fold.

What about the “Fold Up-Regulation ENAM (Enamelin)” value [1] of the same compound?
The value was 1.124 fold.

And the “Fold Up-Regulation FGF1 (Fibroblast growth factor 1)” value [1]?
Its value is −1.4948 fold.

And the “Fold Up-Regulation FGF2 (Fibroblast growth factor 2)” value [1]?
Its value is 1.3957 fold.

And the “Fold Up-Regulation FGF3 (Fibroblast growth factor 3)” value [1]?
Its value is −1.3257 fold.

And the “Fold Up-Regulation FGFR1 (Fibroblast growth factor receptor 1)” value [1]?
Its value is −1.0999 fold.

What about the “Fold Up-Regulation FGFR2 (Fibroblast growth factor receptor 2)” value [1] of the same compound?
Its value is −1.2644 fold.

What about the “Fold Up-Regulation FLT1 (Fms-related tyrosine kinase 1)” value [1] of the same compound?
Its value is −2.7821 fold.

And the “Fold Up-Regulation FN1 (Fibronectin 1)” value [1]?
Its value is 1.099 fold.

And the “Fold Up-Regulation GAPDH (Glyceraldehyde-3-phosphate dehydrogenase)” value [1]?
The value was 1.161 fold.

What about the “Fold Up-Regulation GDF10 (Growth differentiation factor 10)” value [1] of the same compound?
Its value is 1.124 fold.

What about the “Fold Up-Regulation ICAM1 (Intercellular adhesion molecule 1)” value [1] of the same compound?
The value was 1.5053 fold.

And the “Fold Up-Regulation IGF1 (Insulin-like growth factor 1)” value [1]?
The value was 1.5067 fold.

And the “Fold Up-Regulation IGF1R (Insulin-like growth factor 1 receptor)” value [1]?
Its value is −1.0699 fold.

And the “Fold Up-Regulation IGF2 (Insulin-like growth factor 2)” value [1]?
Its value is −1.2388 fold.

What about the “Fold Up-Regulation ITGA1 (Integrin, alpha 1)” value [1] of the same compound?
Its value is 1.325 fold.

And the “Fold Up-Regulation ITGA2 (Integrin, alpha 2)” value [1]?
Its value is −1.0945 fold.

And the “Fold Up-Regulation ITGA3 (Integrin, alpha 3)” value [1]?
The value was −1.8917 fold.

What about the “Fold Up-Regulation ITGAM (Integrin, alpha M)” value [1] of the same compound?
The value was 1.3319 fold.

And the “Fold Up-Regulation ITGB1 (Integrin, beta 1)” value [1]?
The value was 1.1614 fold.

What about the “Fold Up-Regulation MMP2 (Matrix metallopeptidase 2)” value [1] of the same compound?
Its value is −1.1194 fold.

And the “Fold Up-Regulation MMP8 (Matrix metallopeptidase 8)” value [1]?
Its value is 3.7453 fold.

And the “Fold Up-Regulation MMP9 (Matrix metallopeptidase 9)” value [1]?
Its value is −1.2449 fold.

What about the “Fold Up-Regulation MMP10 (Matrix metallopeptidase 10)” value [1] of the same compound?
The value was 1.3516 fold.

What about the “Fold Up-Regulation MSX1 (Msh homeobox 1)” value [1] of the same compound?
Its value is 6.2916 fold.

What about the “Fold Up-Regulation NFKB1 (Nuclear factor of kappa light polypeptide gene enhancer in B-cells 1)” value [1] of the same compound?
The value was −1.1038 fold.

What about the “Fold Up-Regulation PDGFA (Platelet-derived growth factor alpha polypeptide)” value [1] of the same compound?
The value was 1.0421 fold.

What about the “Fold Up-Regulation PHEX (Phosphate regulating endopeptidase homolog, Xlinked)” value [1] of the same compound?
Its value is 1.9871 fold.

What about the “Fold Up-Regulation RUNX2 (Runt-related transcription factor 2)” value [1] of the same compound?
Its value is −3.542 fold.

And the “Fold Up-Regulation SCARB1 (Scavenger receptor class B, member 1)” value [1]?
The value was 1.1791 fold.

What about the “Fold Up-Regulation SERPIN H1 (Serpin peptidase inhibitor, clade H, member 1)” value [1] of the same compound?
Its value is 1.4764 fold.

What about the “Fold Up-Regulation SMAD1 (SMAD family member 1)” value [1] of the same compound?
Its value is −1.2813 fold.

What about the “Fold Up-Regulation SMAD2 (SMAD family member 2)” value [1] of the same compound?
The value was 1.0462 fold.

And the “Fold Up-Regulation SMAD3 (SMAD family member 3)” value [1]?
Its value is −2.771 fold.

And the “Fold Up-Regulation SMAD4 (SMAD family member 4)” value [1]?
Its value is 1.3022 fold.

What about the “Fold Up-Regulation STATH (Statherin)” value [1] of the same compound?
The value was −2.2674 fold.

What about the “Fold Up-Regulation TFIP11 (Tuftelin interacting protein 11)” value [1] of the same compound?
The value was 1.1041 fold.

And the “Fold Up-Regulation TGFB1 (Transforming growth factor, beta 1)” value [1]?
Its value is −1.2644 fold.

What about the “Fold Up-Regulation TGFB2 (Transforming growth factor, beta 2)” value [1] of the same compound?
The value was 1.0081 fold.

And the “Fold Up-Regulation TGFB3 (Transforming growth factor, beta 3)” value [1]?
The value was 2.2234 fold.

And the “Fold Up-Regulation TGFBR1 (Transforming growth factor, beta receptor 1)” value [1]?
Its value is 2.0059 fold.

What about the “Fold Up-Regulation TGFBR2 (Transforming growth factor, beta receptor II)” value [1] of the same compound?
The value was −2.3752 fold.

What about the “Fold Up-Regulation TNF (Tumor necrosis factor)” value [1] of the same compound?
Its value is 1.8055 fold.

What about the “Fold Up-Regulation TUFT1 (Tuftelin 1)” value [1] of the same compound?
The value was 1.4326 fold.

What about the “Fold Up-Regulation TWIST1 (Twist homolog 1)” value [1] of the same compound?
Its value is −2.197 fold.

And the “Fold Up-Regulation VCAM1 (Vascular cell adhesion molecule 1)” value [1]?
Its value is −2.406 fold.

And the “Fold Up-Regulation VDR (Vitamin D (1,25-dihydroxyvitamin D3) receptor)” value [1]?
The value was −1.5248 fold.

And the “Fold Up-Regulation VEGFA (Vascular endothelial growth factor A)” value [1]?
The value was −1.0162 fold.

What about the “Fold Up-Regulation VEGFB (Vascular endothelial growth factor B)” value [1] of the same compound?
The value was −1.1191 fold.

Source: patent publication US9694019B2, “Compositions and methods for treating bone diseases and broken bones” (BRIGHAM YOUNG UNIVERSITY, priority 2011, dated 2017)
